Holding throughout (assay type): in vivo, SD rat
Assay [1] relates to ovariectomized osteoporotic rats (去卵巢骨质疏松大鼠). Description: Serum calcitonin in ovariectomized osteoporotic rats, radioimmunoassay (Table 4).
Assay [2] has the same test system. As to the kind of experiment: Osteocalcin in ovariectomized osteoporotic rats, radioimmunoassay (Table 5).
The test system is the same in assay [3]. As to the kind of experiment: Serum estradiol in ovariectomized osteoporotic rats, radioimmunoassay (Table 6).
Assay [4] has the same test system. As to the kind of experiment: Serum calcium in ovariectomized osteoporotic rats (Table 7). As to conditions: for serum calcium content (result in words): compared with negative control group.
The test system is the same in assay [5]. As to the kind of experiment: Serum phosphorus in ovariectomized osteoporotic rats (Table 8). As to conditions: for serum phosphorus content (result in words): compared with negative control group.
Assay [6] shares this test system. As to the kind of experiment: Serum alkaline phosphatase in ovariectomized osteoporotic rats (Table 9). As to conditions: three months after surgery, compared with negative control group.
The test system is the same in assay [7]. Description: Uterine wet weight in ovariectomized osteoporotic rats (Table 10). The settings on record: three months after surgery; for uterine wet weight (result in words): compared with negative control group; for uterine wet weight: oral once daily, 1 month, nilestriol 1 mg/kg, calcitriol 5 μg/kg, emodin 5 μg/kg, calcitriol + emodin 5 μg/kg.
Assay [8] has the same test system. As to the kind of experiment: Bone mineral density (total and trabecular) in ovariectomized osteoporotic rats (Table 2). The settings on record: oral once daily, 1 month; calcitriol 5 μg/kg, emodin 5 μg/kg, calcitriol + emodin 5 μg/kg; right tibia.
For assay [9] the test system is unchanged. Description: Bone mineral content (total and trabecular) in ovariectomized osteoporotic rats (Table 3). As to conditions: oral once daily, 1 month; calcitriol 5 μg/kg, emodin 5 μg/kg, calcitriol + emodin 5 μg/kg; right tibia.
Where [10] appears, read: three months after surgery, oral once daily, 1 month, nilestriol 1 mg/kg, calcitriol 5 μg/kg, emodin 5 μg/kg, calcitriol + emodin 5 μg/kg.

With `C#C[C@]1(O)[C@H](O)C[C@H]2[C@@H]3CCc4cc(OC5CCCC5)ccc4[C@H]3CC[C@@]21C` [阳性对照组, 尼尔雌醇], the serum calcitonin content in assay [1] (before surgery (baseline)) came to 231.35 ± 20.11 ng/L; in assay [1] (setting [10]), 459.34 ± 11.43 ng/L. The osteocalcin content in assay [2] (before surgery (baseline)) is 2.98 ± 0.89 ng/L; in assay [2] (setting [10]) it was 4.12 ± 1.32 ng/L. Also, the serum estradiol content in assay [3] (before surgery (baseline)) is 12.65 ± 2.21 pg/mL; in assay [3] (setting [10]), 20.43 ± 1.54 pg/mL. For the same compound, the values for the calcium content in assay [4] (before surgery (baseline)) and in assay [4] (setting [10]) were 4.19 ± 0.43 mmol/L and 4.65 ± 0.12 mmol/L, respectively. Further, in assay [4] (three months after surgery), the “serum calcium content (result in words)” value is “血清钙和磷含量与阴性对照组相比上升”. Besides, the phosphorus content came out at 1.55 ± 0.45 mmol/L in assay [5] (before surgery (baseline)) and 1.87 ± 0.46 mmol/L in [5] (setting [10]). The “serum phosphorus content (result in words)” value (from here on “serum phosphorus content”) in [5] (three months after surgery) is “血清钙和磷含量与阴性对照组相比上升”. The “serum alkaline phosphatase content (result in words)” value (“serum alkaline phosphatase content” for short) in assay [6] is on record as “与阴性对照组相比出现下降”. Further, the “uterine wet weight (result in words)” value in assay [7] is listed as “子宫湿重明显高于阴性对照组”. In addition, the uterine wet weight in assay [7] is 118.43 ± 12.43 mg.

As for `Cc1cc(O)c2c(c1)C(=O)c1cc(O)cc(O)c1C2=O` [大黄素组, 大黄素], the “bone mineral density (result in words)” value in [8] is reported as “产生一定的增强骨密度的作用”. In assay [9], the “bone mineral content (result in words)” value was “产生一定的提高骨含量的作用”. Further, the serum calcitonin content in assay [1] (before surgery (baseline)) was 222.43 ± 19.43 ng/L; in [1] (setting [10]), 265.24 ± 22.43 ng/L. Moreover, in [1] (three months after surgery), the “serum calcitonin content (result in words)” value was “血清降钙素含量上升”. For the same compound, the osteocalcin content came out at 3.09 ± 1.21 ng/L in assay [2] (before surgery (baseline)) and 3.38 ± 0.98 ng/L in [2] (setting [10]). Also, the “osteocalcin content (result in words)” value in assay [2] (three months after surgery) was “骨钙素含量上升”. For the same compound, the serum estradiol content in [3] (before surgery (baseline)) stood at 12.87 ± 2.01 pg/mL; in assay [3] (setting [10]) it was 14.67 ± 1.76 pg/mL. In assay [3] (three months after surgery), the “serum estradiol content (result in words)” value was “血清雌二醇含量上升”. Moreover, the calcium content was determined as 4.21 ± 0.24 mmol/L in [4] (before surgery (baseline)) and 4.21 ± 0.56 mmol/L in [4] (setting [10]). Besides, the “serum calcium content (result in words)” value in assay [4] (three months after surgery) was “血清钙和磷含量与阴性对照组相比上升”. Besides, the phosphorus content in assay [5] (before surgery (baseline)) turned out to be 1.58 ± 0.43 mmol/L; in [5] (setting [10]), 1.73 ± 0.65 mmol/L. For the same compound, the “serum phosphorus content” value in assay [5] (three months after surgery) is recorded as “血清钙和磷含量与阴性对照组相比上升”. Further, the “serum alkaline phosphatase content” value in assay [6] is given as “与阴性对照组相比也出现下降”. For the same compound, in [7], the “uterine wet weight (result in words)” value is “子宫湿重明显高于阴性对照组”. Also, the uterine wet weight in assay [7] amounted to 89.34 ± 19.32 mg.

`C=C1/C(=C\C=C2/CCC[C@]3(C)[C@@H]([C@H](C)CCCC(C)(C)O)CC[C@@H]23)C[C@@H](O)C[C@@H]1O` [骨化三醇组, 9,10-开环胆甾-5Z,7E,10(19)-三烯-1α,3β,25-三醇]: the “bone mineral density (result in words)” value in assay [8] is “产生一定的增强骨密度的作用”. Further, the “bone mineral content (result in words)” value in assay [9] was “产生一定的提高骨含量的作用”. The serum calcitonin content in assay [1] (before surgery (baseline)) was determined as 241.23 ± 11.43 ng/L; in assay [1] (setting [10]), 321.34 ± 13.43 ng/L. Also, the “serum calcitonin content (result in words)” value in assay [1] (three months after surgery) was “血清降钙素含量上升”. In addition, the osteocalcin content in assay [2] (before surgery (baseline)) is 3.22 ± 1.22 ng/L; in [2] (setting [10]) it was 3.45 ± 1.21 ng/L. In addition, the “osteocalcin content (result in words)” value in assay [2] (three months after surgery) was “骨钙素含量上升”. In addition, the serum estradiol content in assay [3] (before surgery (baseline)) came out at 13.21 ± 1.56 pg/mL; in [3] (setting [10]), 15.34 ± 1.53 pg/mL. Besides, the “serum estradiol content (result in words)” value in [3] (three months after surgery) is “血清雌二醇含量上升”. Moreover, the figures for the calcium content in [4] (before surgery (baseline)) and in assay [4] (setting [10]) were 4.10 ± 0.54 mmol/L and 4.24 ± 0.41 mmol/L, respectively. For the same compound, the “serum calcium content (result in words)” value in [4] (three months after surgery) is recorded as “血清钙和磷含量与阴性对照组相比上升”. Moreover, the phosphorus content in assay [5] (before surgery (baseline)) came out at 1.61 ± 0.38 mmol/L; in assay [5] (setting [10]), 1.71 ± 0.53 mmol/L. Further, in assay [5] (three months after surgery), the “serum phosphorus content” value was “血清钙和磷含量与阴性对照组相比上升”. Further, the “serum alkaline phosphatase content” value in [6] is “与阴性对照组相比也出现下降”. For the same compound, the “uterine wet weight (result in words)” value in assay [7] is listed as “子宫湿重明显高于阴性对照组”. Besides, the uterine wet weight in assay [7] amounted to 90.43 ± 10.43 mg.

The values are drawn from patent CN109260209A, “一种骨化三醇软胶囊及其制备方法” (CP Pharmaceutical Qingdao Co Ltd, priority 2018, dated 2019).
